{
  "source": "patent US10172905B1",
  "about": "“Treatment of protein degradation disorders” (President and Fellows of Harvard College, priority 2005, dated 2019)",
  "key": {"[1]": {"test_system": "tubulin acetylation versus lysine acetylation", "assay": "Immunofluorescence assay for acetylated tubulin versus acetylated lysine", "type": "cell-based", "details": "cells not given", "text": "The present invention provides an immunofluorescence-based assay for identifying test agents with HDAC and/or TDAC inhibitory activity. The inventive assay is based on the use of specific antibodies for acetylated tubulin and acetylated lysine (i.e., a marker for acetylated histones). […] As described above, any type of agent, including small molecules, polymers, biomolecules, proteins, peptides, polynucleotides, etc., may be screened using the inventive assay. In certain embodiments, small molecules are screened. In certain particular embodiments, the small molecules are tubacin-like or are tubacin derivatives. In certain embodiments, the small molecules are compounds of the present invention. The test agents may also be small molecules purchased, prepared through traditional synthetic techniques, prepared through combinatorial chemistry techniques, or obtained from historical chemical collections. In certain embodiments, the test agents are biomolecules. In other embodiments, the test agents are proteins or peptides. In yet other embodiments, the test agents are polynucleotides. In certain embodiments, the test agents are polymers.\nThe assay involves contacting cells with a specific concentration of the test agent under specific conditions. […] There particular parameters may be determined by the operator or scientist conducting the assay as would be appreciated by one of skill in this art. After a determined time of incubation with the test compound, the cells are treated with a first primary antibody directed against acetylated tubulin and a second primary antibody directed against acetylated lysine. […] The signal from each of the secondary antibodies is measured and optionally quantitated to determine the amount of TDAC and HDAC inhibition under the specified conditions with the test agent. Optionally, the extent of inhibition is determined relative to a control in which no test agent was added. In certain embodiments, the secondary antibody is left out and the primary antibodies are uniquely labeled for identification and optionally quantification. […]"}, "MM.1S and RPMI cells": {"test_system": "MM.1S and RPMI cells", "assay": "Synergy with Velcade/Bortezomib in myeloma cell lines", "type": "cell-based"}, "HDAC6 [2]": {"target": "T1, HDAC6 (Homo sapiens, UniProt Q9UBN7)", "T1 sequence (Q9UBN7 1-1215)": "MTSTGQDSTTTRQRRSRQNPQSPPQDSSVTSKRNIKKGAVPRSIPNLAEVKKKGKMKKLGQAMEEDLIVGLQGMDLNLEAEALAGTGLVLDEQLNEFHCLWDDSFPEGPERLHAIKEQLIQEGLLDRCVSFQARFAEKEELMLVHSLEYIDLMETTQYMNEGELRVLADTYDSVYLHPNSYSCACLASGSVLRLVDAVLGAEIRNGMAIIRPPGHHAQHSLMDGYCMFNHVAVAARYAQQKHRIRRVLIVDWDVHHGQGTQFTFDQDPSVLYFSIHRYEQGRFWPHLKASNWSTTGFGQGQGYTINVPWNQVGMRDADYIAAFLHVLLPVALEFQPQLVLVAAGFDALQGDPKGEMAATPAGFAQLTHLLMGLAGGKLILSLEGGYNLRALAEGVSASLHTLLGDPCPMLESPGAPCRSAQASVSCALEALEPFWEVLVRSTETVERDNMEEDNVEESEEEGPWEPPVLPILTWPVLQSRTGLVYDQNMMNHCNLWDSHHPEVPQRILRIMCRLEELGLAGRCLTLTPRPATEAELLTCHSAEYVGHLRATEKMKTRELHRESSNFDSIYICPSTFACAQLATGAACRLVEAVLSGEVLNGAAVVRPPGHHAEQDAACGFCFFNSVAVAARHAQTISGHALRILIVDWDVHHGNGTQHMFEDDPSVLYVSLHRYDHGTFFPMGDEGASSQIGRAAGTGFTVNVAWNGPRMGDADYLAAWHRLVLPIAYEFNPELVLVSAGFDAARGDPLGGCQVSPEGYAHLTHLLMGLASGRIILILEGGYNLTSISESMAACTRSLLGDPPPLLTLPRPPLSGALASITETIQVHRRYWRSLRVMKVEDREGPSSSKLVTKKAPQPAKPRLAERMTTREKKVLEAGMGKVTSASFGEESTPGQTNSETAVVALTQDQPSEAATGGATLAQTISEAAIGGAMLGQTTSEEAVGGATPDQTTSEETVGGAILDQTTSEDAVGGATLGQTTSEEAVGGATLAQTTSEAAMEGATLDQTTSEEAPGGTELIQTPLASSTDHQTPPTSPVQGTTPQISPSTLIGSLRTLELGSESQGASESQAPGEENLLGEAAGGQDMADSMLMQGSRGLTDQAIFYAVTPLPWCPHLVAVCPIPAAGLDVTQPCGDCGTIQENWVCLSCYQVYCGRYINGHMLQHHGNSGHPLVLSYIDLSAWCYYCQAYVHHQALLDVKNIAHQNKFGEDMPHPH", "details": "stated property of control compound; cited from earlier work"}, "[3]": {"test_system": "MM.1S cells and RPMI cells", "assay": "Inhibition of protein catabolism in myeloma cells", "type": "cell-based", "details": "FIG. 18"}, "MM.1S cells [4]": {"test_system": "MM.1S cells", "assay": "Cell cycle profile by flow cytometry (PI staining)", "type": "cell-based, human", "details": "bortezomib 5 nM alone, 24 h; increased from 14.2%", "procedure": "[…] Cells were then stained with propidium iodine (PI, Sigma) (5 μg/ml) and cell cycle profile was determined using program M software on an Epics flow cytometer (Coulter Immunology, Hialeah, Fla.) (44)."}, "[5]": {"test_system": "patients with refractory relapsed MM", "details": "202 patients; cited from earlier work"}, "MM.1S and RPMI8226 cells": {"test_system": "MM.1S and RPMI8226 cells", "assay": "[3H]-thymidine uptake of MM cells adherent to BMSCs", "type": "cell-based, human", "details": "MM cells adherent to BMSCs, 24 h", "procedure": "[…] DNA synthesis was measured as described above.\nAfter treatment, DNA synthesis was measured by [^3H]-thymidine (Perkin Elmer, Boston Mass.) uptake, as previously described (44). All experiments were performed in quadruplicate."}, "[6]": {"test_system": "JNK phosphorylation and caspase/PARP cleavage", "assay": "Western blotting for p21Cip1, p-JNK, caspases and PARP", "type": "cell-based, human", "details": "MM.1S cells, tubacin 5 μM and/or bortezomib 5 nM, 24 h", "procedure": "(§1) MM cells were cultured with Velcade and/or Tubacin; harvested; washed; and lysed using lysis buffer: 50 mM Tris-HCl (pH 7.4), 150 mM NaCl, 1% NP-40, 5 mM EDTA, 5 mM NaF, 2 mM Na3VO4, 1 mM PMSF, 5 μg/ml leupeptine, and 5 μg/ml aprotinin. Cell lysates were subjected to SDS-PAGE, transferred to PVDF membrane (Bio-Rad Laboratories, Hercules, Calif.), and immunoblotted with Abs against specific proteins.\n(§2) Cells cultured with tubacin and/or bortezomib were harvested; washed, and lysed using lysis buffer: 50 mM Tris-HCl (pH 7.4), 150 mM NaCl, 1% NP-40, 5 mM EDTA, 5 mM NaF, 1 mM Na3VO4, 1 mM PMSF, 5 μg/ml leupeptine, and 5 μg/ml aprotinin. Whole cell lysates were subjected to SDS-PAGE, transferred to nitrocellulose membrane (Bio-Rad Laboratories, Hercules, Calif.), and immunoblotted with specific Abs (31). Western blotting was done using anti-HDAC6, acetylated lysine, acetylated histone H3, acetylated histone H4, ubiquitin (Ub), phospho-SAPK (JNK), caspase-8 caspase-9, caspase-3, and PARP Abs (Cell Signaling, Beverly, Mass.); with anti-α-tubulin Ab (Santa Cruz Biotechnology, Santa Cruz, Calif.); as well as with anti-dynein Ab (Sigma, Saint Louis, Mo.). For immunoprecipitation, whole cell lysates were incubated with anti-Ub or dynein Abs overnight at 4° C., and then incubated with protein A/G PLUS-Agarose (Santa Cruz Biotechnology) for 2 h at 4° C., as in our prior study (31). Immunoprecipitates were then subjected to Western blotting for detection of HDAC6 and dynein."}, "RPMI8226 cells": {"test_system": "RPMI8226 cells", "details": "24 h", "method": "The inhibitory effect of bortezomib and/or tubacin on MM cell growth was assessed by measuring 3-(4,5-dimethylthiazol-2-yl)-2,5-diphenyl tetrazolium bromide (MTT) dye absorbance, as described previously (33). Cells from 48 h cultures were pulsed with 10 μl of 5 mg/ml MTT to each well for the last 4 h of 48 h cultures, followed by 100 μl isopropanol containing 0.04N HCl. Absorbance was measured at 570 nm using a spectrophotometer (Molecular Devices Corp., Sunnyvale Calif.). All experiments were performed in quadruplicate."}, "HDAC6 [7]": {"target": "T1, HDAC6", "assay": "Western blotting with anti-acetylated lysine / HDAC6 Abs", "type": "cell-based", "set-up": "MM.1S, U266, INA-6, RPMI8226, and RPMI-LR5 MM cell lines constitutively express HDAC6; endogenous in cells; host or cells: MM.1S, RPMI8226 and other MM cell lines; MM patient BMPCs/PBMCs", "details": "niltubacin 2.5 and 5 μM, 24 h, MM.1S cells", "procedure": "as §1, §2"}, "MM.1S cells [8]": {"test_system": "MM.1S cells", "assay": "MTT assay with niltubacin or HDAC6 siRNA, with or without bortezomib", "type": "cell-based, human", "details": "niltubacin 2.5 and 5 μM, 5 nM bortezomib", "procedure": "The inhibitory effect of bortezomib and/or tubacin on MM cell growth was assessed by measuring 3-(4,5-dimethylthiazol-2-yl)-2,5-diphenyl tetrazolium bromide (MTT) dye absorbance, as described previously (33). […] All experiments were performed in quadruplicate.\nMM.1S cells were transiently transfected with HDAC6 siRNA (Dharmacon Inc., Lafayette, Colo.) using “Cell Line Nucleofecto™ Kit V,” according to manufacturer's (Amaxa Biosystems, Gaithersburg, Md.) instructions (33). Following transfection, MM.1S cells were subjected to Western blotting and MTT assay, in the presence or absence of bortezomib."}},
  "note": "Like-named read-outs stand apart in the source and are kept apart here. Non-standard residues stand in square brackets, D forms with d. Residues, ends and D or L forms follow the SMILES beside them. Aoe = N[C@@H](CCCCCC(=O)[C@@H]1CO1)C(=O)O",
  "data": [
    {"smiles": "O=C(CCCCCCC(=O)Nc1ccc(C2OC(CSc3nc(-c4ccccc4)c(-c4ccccc4)o3)CC(c3ccccc3)O2)cc1)NO", "note": "(centres unmarked) [DHM-Tubacin, des(hydromethyl)-Tubacin]", "values": [
      {"measurement": "specificity for tubulin acetylation versus lysine acetylation", "setting": "[1]", "result": "specificity"},
      {"measurement": "synergy with Velcade", "setting": "MM.1S and RPMI cells; MM.1S and RPMI cells", "result": "synergy"}
    ]},
    {"smiles": "Cc1[nH]c2ccccc2c1CCNCc1ccc(/C=C/C(=O)NO)cc1", "note": "[LBH589, reference compound]", "values": [
      {"measurement": "toxicity and synergy with Bortezomib", "setting": "MM.1S and RPMI cells; MM.1S cells", "result": "toxicity and synergy"},
      {"measurement": "toxicity and synergy with Bortezomib", "setting": "MM.1S and RPMI cells; RPMI-8226 cells", "result": "toxicity and synergy"}
    ]},
    {"smiles": "CC(/C=C/C(=O)NO)=C\\[C@@H](C)C(=O)c1ccc(N(C)C)cc1", "note": "[Trichostatin]", "values": [
      {"measurement": "inhibition of HDAC6", "setting": "HDAC6 [2]", "result": "potent inhibitor of both HDAC6 domains"}
    ]},
    {"smiles": "CC(C)C[C@H](NC(=O)[C@H](Cc1ccccc1)NC(=O)c1cnccn1)B(O)O", "note": "[bortezomib]", "values": [
      {"measurement": "inhibition of protein catabolism", "setting": "[3]", "result": "potent inhibitors of protein catabolism"},
      {"measurement": "G2M phase MM.1S cells", "setting": "MM.1S cells [4]", "result": 39.5, "unit": "%"},
      {"measurement": "complete and near complete responses", "setting": "[5]", "result": 10, "unit": "%"},
      {"measurement": "patients who did not respond", "setting": "[5]", "result": 65, "unit": "%"},
      {"measurement": "responses", "setting": "[5]", "result": 35, "unit": "%"},
      {"measurement": "BMSC-induced [3H]-thymidine uptake / MM cell growth with BMSCs, single agent", "setting": "MM.1S and RPMI8226 cells", "result": "inhibits BMSC-induced [^3H]-thymidine uptake in a dose-dependent fashion"},
      {"measurement": "phosphorylation of JNK and caspase/PARP cleavage", "setting": "[6]", "result": "induces only modest phosphorylation of JNK as well as caspase-9, -8, -3 and PARP cleavage"},
      {"measurement": "RPMI8226 cell death", "setting": "RPMI8226 cells; 5 nM bortezomib alone", "result": 26, "unit": "%"},
      {"measurement": "RPMI8226 cell death", "setting": "RPMI8226 cells; 10 nM bortezomib alone", "result": 66, "unit": "%"}
    ]},
    {"smiles": "O=C(O)CCCCCCC(=O)Nc1ccc([C@H]2O[C@@H](CSc3nc(-c4ccccc4)c(-c4ccccc4)o3)C[C@@H](c3ccc(CO)cc3)O2)cc1", "note": "[niltubacin, reference compound]", "values": [
      {"measurement": "acetylation of α-tubulin", "setting": "HDAC6 [7]", "result": "does not affect"},
      {"measurement": "enhancement of cytotoxicity induced by bortezomib", "setting": "MM.1S cells [8]", "result": "does not affect either acetylation of α-tubulin (FIG. 4F) or enhance cytotoxicity"}
    ]},
    {"smiles": "O=C1N[C@@H](Cc2ccccc2)C(=O)N2CCC[C@@H]2C(=O)N[C@@H](CCCCCC(=O)[C@@H]2CO2)C(=O)N[C@H]1Cc1ccccc1", "note": "[trapoxin] (cyclo(FF[dP][Aoe]))", "values": [
      {"measurement": "inhibition of HDAC6", "setting": "HDAC6 [2]", "result": "does not inhibit HDAC6"}
    ]}
  ]
}
